Tests used:
[1] = tissue exposure following i.p. administration; type: in vivo, C57Bl/6 J mice; conditions: mice
Description: To test the efficacy of STL1267 in vivo, we began by assessing tissue exposure following i.p. administration. We administered vehicle or 50 mg/kg of STL1267 via intraperitoneal injection to C57Bl/6 J mice. The mice were sacrificed at four subsequent time points over the next 12 h.
All in vivo studies were performed using the ARRIVE guidelines and approved by the Washington University IACUC. C57Bl/6J mice (male; 6–8 weeks of age) maintained at 12:12 h light;dark, 22 °C, 40–60% humidity. Mice were injected IP with 50 mg/kg STL1267 (n = 3–4 per group) or vehicle (10% DMSO, 12% TWEEN80, PBS) (n = 3–4 per group). Mice were weighed immediately following the injection and were weighed again immediately after sacrifice. Mice were fasted started at the time of injection. For tissue collection, three STL1267-injected mice were sacrificed at 1 h post-injection, and three more were sacrificed at 3 h post-injection. At 8 h and 12 h post-injection, six mice from each treatment group were taken down and tissue was collected. The tissues collected at all four time points include plasma, white adipose tissue, brain, liver, and skeletal muscle (quadriceps). […] Analytes were extracted using protein precipitation techniques with acetonitrile and samples were then analyzed using a SCIEX Triple Quad 5500+ system – QTRAP ready linked to an ExionLC AD-HPLC system. […]

[2] = molecular target: T1, 5-HT1D (Homo sapiens, UniProt P28221); test: PDSP radioligand binding assay; conditions: read-out: RLBA Ki
T1 construct: NIMH Psychoactive Drug Screening Program (assay performed there)
T1 sequence (P28221 whole entry, species assumed): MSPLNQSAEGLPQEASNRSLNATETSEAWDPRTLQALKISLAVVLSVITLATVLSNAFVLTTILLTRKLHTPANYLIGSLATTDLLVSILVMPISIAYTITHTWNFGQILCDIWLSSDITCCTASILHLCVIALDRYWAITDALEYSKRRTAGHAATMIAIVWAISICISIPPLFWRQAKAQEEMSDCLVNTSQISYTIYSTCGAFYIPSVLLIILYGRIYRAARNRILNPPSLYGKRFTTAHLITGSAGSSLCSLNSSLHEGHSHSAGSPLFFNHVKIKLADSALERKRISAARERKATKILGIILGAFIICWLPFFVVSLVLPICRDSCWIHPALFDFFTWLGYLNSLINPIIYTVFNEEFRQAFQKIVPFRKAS
Description: (§1) Receptor RLBA Ki Receptor activity
(§2) Suppl ementary Tabl e 1. Speci fi ci ty of STL1267. […]

[3] = molecular target: T2, 5-HT1E (Homo sapiens, UniProt P28566); test: PDSP radioligand binding assay; conditions: read-out: RLBA Ki
T2 construct: NIMH Psychoactive Drug Screening Program (assay performed there)
T2 sequence (P28566 whole entry, species assumed): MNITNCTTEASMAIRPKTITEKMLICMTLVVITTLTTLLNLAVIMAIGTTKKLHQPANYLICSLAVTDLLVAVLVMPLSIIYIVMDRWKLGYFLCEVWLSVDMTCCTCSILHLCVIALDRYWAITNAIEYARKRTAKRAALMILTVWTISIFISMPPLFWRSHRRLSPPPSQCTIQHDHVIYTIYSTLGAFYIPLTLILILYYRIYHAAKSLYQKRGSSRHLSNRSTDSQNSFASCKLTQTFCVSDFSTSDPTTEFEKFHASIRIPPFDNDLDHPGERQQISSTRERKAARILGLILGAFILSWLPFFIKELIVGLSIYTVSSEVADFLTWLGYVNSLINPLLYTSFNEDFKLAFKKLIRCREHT
Description: as §1, §2

[4] = molecular target: T3, 5-HT2B (Homo sapiens, UniProt P41595); test: PDSP radioligand binding assay; conditions: read-out: RLBA Ki
T3 construct: NIMH Psychoactive Drug Screening Program (assay performed there)
T3 sequence (P41595 whole entry, species assumed): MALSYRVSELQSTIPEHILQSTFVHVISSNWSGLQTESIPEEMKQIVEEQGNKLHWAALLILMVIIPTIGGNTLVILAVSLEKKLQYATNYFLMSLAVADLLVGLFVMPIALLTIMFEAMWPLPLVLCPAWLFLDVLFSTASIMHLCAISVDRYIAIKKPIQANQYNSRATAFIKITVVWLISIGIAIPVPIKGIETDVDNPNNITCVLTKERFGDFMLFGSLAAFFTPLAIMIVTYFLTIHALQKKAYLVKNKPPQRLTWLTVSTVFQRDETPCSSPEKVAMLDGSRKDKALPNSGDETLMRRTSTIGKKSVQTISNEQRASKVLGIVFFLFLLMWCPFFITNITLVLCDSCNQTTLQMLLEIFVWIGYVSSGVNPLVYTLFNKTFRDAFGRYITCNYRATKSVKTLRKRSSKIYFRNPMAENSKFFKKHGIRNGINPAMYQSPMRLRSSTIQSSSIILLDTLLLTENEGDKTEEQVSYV
Description: as §1, §2

[5] = molecular target: T4, 5-HT6 (Homo sapiens, UniProt P50406); test: PDSP radioligand binding assay; conditions: read-out: RLBA Ki
T4 construct: NIMH Psychoactive Drug Screening Program (assay performed there)
T4 sequence (P50406 whole entry, species assumed): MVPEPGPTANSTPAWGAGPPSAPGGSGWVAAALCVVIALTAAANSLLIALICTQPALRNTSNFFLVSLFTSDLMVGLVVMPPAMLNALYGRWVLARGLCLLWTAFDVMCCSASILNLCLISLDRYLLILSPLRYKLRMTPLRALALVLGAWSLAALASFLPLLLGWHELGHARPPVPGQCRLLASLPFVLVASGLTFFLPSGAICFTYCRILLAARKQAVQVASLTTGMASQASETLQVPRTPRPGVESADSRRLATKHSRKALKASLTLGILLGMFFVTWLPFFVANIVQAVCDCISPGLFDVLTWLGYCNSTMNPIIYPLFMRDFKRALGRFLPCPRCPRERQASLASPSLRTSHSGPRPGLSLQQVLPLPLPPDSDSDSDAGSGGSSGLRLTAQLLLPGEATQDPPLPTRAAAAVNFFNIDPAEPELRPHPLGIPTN
Description: as §1, §2

[6] = molecular target: T5, Alpha1B (Homo sapiens, UniProt P35368); test: PDSP radioligand binding assay; conditions: read-out: RLBA Ki
T5 construct: NIMH Psychoactive Drug Screening Program (assay performed there)
Description: as §1, §2

[7] = molecular target: T6, Beta1 (Homo sapiens, UniProt P08588); test: PDSP radioligand binding assay; conditions: read-out: RLBA Ki
T6 construct: NIMH Psychoactive Drug Screening Program (assay performed there)
T6 sequence (P08588 whole entry): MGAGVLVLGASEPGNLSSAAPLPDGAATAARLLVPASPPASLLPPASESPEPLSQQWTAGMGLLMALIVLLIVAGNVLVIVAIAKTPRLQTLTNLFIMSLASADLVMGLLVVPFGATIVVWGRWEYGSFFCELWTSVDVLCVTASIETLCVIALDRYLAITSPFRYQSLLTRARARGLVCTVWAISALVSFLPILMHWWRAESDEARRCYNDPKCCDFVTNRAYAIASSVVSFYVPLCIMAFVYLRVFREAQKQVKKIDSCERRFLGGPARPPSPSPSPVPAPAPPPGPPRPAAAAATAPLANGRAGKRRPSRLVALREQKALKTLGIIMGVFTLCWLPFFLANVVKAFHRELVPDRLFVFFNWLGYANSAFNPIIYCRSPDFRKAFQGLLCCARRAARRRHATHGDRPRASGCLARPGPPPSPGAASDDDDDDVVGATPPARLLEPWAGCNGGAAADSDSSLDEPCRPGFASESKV
Description: as §1, §2

[8] = molecular target: Beta2 (Homo sapiens, UniProt P07550); test: PDSP radioligand binding assay; conditions: read-out: RLBA Ki
Description: as §1, §2

[9] = molecular target: D1 (Homo sapiens, UniProt P21728); test: PDSP radioligand binding assay; conditions: read-out: RLBA Ki
D1, sequence (P21728 whole entry): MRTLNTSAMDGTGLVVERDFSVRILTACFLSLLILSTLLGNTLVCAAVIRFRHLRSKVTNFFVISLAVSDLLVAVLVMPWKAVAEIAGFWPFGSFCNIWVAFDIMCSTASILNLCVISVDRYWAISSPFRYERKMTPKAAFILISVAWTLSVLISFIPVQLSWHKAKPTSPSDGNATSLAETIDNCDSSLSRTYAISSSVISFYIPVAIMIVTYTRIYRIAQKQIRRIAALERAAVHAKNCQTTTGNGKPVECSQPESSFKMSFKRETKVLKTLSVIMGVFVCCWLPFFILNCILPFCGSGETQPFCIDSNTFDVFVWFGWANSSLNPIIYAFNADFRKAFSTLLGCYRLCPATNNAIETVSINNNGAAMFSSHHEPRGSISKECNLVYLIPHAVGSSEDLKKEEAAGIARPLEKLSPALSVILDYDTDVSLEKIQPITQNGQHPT
Description: as §1, §2

[10] = molecular target: D2 (Homo sapiens, UniProt P14416); test: PDSP radioligand binding assay; conditions: read-out: RLBA Ki
Description: as §1, §2

[11] = molecular target: D4 (Homo sapiens, UniProt P21917); test: PDSP radioligand binding assay; conditions: read-out: RLBA Ki
D4, sequence (P21917 whole entry): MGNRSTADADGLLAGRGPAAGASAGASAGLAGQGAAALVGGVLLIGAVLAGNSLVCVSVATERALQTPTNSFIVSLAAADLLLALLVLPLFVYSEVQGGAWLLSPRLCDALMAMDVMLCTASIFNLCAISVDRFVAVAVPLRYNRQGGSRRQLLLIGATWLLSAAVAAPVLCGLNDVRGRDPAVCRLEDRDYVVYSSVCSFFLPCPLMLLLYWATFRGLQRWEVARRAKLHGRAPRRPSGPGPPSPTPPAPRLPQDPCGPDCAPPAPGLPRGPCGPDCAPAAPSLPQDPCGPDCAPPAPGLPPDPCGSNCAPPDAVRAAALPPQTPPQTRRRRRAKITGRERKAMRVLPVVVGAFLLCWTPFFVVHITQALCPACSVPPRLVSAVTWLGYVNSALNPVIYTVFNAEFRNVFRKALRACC
Description: as §1, §2

[12] = molecular target: D5 (Homo sapiens, UniProt P21918); test: PDSP radioligand binding assay; conditions: read-out: RLBA Ki
D5, sequence (P21918 whole entry): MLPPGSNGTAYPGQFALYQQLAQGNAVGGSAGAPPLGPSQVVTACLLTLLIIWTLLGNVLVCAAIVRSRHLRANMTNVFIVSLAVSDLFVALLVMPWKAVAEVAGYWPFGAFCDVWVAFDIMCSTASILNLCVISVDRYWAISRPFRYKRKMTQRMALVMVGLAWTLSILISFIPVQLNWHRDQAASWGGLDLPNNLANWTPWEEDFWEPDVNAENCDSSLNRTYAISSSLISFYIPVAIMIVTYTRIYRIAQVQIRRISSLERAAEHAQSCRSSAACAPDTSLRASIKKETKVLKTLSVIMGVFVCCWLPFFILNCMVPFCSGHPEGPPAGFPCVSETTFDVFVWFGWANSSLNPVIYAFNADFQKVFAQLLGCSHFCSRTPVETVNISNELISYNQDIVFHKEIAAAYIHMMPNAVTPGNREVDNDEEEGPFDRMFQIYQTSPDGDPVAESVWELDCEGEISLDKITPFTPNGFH
Description: as §1, §2

[13] = molecular target: DAT (Homo sapiens, UniProt Q01959); test: PDSP radioligand binding assay; conditions: read-out: RLBA Ki
DAT, sequence (Q01959 whole entry, species assumed): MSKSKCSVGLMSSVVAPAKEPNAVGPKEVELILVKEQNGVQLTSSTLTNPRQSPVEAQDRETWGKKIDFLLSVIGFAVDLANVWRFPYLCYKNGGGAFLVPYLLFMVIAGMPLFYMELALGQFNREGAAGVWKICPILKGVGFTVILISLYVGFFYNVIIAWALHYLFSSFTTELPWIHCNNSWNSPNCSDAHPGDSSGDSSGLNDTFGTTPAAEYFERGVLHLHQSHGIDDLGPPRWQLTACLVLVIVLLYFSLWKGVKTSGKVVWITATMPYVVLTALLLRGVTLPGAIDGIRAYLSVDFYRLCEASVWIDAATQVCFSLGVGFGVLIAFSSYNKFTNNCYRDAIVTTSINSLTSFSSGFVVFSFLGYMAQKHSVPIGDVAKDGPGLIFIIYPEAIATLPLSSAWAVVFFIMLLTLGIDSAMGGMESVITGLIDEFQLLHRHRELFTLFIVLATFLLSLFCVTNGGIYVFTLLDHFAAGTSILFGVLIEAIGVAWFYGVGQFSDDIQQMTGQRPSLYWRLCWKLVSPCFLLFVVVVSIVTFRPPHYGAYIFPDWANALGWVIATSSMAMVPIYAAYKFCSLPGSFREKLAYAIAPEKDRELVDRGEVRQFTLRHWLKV
Description: as §1, §2

[14] = molecular target: GABAA; test: PDSP radioligand binding assay; conditions: read-out: RLBA Ki
Description: as §1, §2

[15] = molecular target: H4 (Homo sapiens, UniProt Q9H3N8); test: PDSP radioligand binding assay; conditions: read-out: RLBA Ki
Description: as §1, §2

[16] = molecular target: M2 (Homo sapiens, UniProt P08172); test: PDSP radioligand binding assay; conditions: read-out: RLBA Ki
M2, sequence (P08172 whole entry): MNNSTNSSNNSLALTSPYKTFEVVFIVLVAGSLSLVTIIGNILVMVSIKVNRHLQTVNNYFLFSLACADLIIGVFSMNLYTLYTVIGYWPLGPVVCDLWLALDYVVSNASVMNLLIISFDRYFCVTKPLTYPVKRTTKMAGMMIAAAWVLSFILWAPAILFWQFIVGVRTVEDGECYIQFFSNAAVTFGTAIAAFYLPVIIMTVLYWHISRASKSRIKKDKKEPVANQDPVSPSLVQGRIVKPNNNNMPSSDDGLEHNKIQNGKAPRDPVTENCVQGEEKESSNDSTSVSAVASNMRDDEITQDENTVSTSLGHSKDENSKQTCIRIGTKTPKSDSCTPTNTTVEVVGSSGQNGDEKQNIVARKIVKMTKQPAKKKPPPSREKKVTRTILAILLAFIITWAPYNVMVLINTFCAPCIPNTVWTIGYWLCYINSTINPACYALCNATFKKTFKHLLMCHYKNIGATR
Description: as §1, §2

[17] = molecular target: T7, REV-ERBα LBD (Homo sapiens, UniProt P20393); test: scintillation proximity radioligand binding assay with 3H-STL1267; parameters: made in house; conditions: SPA
T7 sequence (P20393 284-614 limits assumed): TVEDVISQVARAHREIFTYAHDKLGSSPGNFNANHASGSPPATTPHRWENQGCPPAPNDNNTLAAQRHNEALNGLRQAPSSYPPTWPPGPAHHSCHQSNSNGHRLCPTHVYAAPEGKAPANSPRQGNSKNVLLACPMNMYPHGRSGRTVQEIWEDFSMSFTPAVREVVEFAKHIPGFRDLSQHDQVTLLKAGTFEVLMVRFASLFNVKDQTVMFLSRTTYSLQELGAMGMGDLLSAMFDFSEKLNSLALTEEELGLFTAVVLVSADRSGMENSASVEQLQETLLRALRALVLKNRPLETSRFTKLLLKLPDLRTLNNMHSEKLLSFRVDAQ

half-life ([1]; male, C57Bl/6J, mouse, plasma, ip, 50 mg/kg intraperitoneal injection): ~1.6 h
tissue distribution (brain, plasma, liver, skeletal muscle, white adipose tissue) ([1]; 50 mg/kg i.p.): localized in all the tissues collected
Ki [2]: > 10 µM
Ki [3]: > 10 µM
Ki [4]: > 10 µM
Ki [5]: > 10 µM
Ki [6]: > 10 µM
Ki [7]: > 10 µM
Ki [8]: > 10 µM
Ki [9]: > 10 µM
Ki [10]: > 10 µM
Ki [11]: > 10 µM
Ki [12]: > 10 µM
Ki [13]: > 10 µM
Ki [14]: > 10 µM
Ki [15]: > 10 µM
Ki [16]: > 10 µM
Ki ([17]; REV-ERBα LBD, read-out: Ki, displacement of 3H-STL1267): 0.16 µM
potency relative to SR9009 in the radioligand binding assay [17]: 4.3 fold
Structure (SMILES): Clc1nnc2ccc(Oc3ccccc3-c3ccccc3)nn12 [STL1267]

— article PMC9681850, “Structural basis of synthetic agonist activation of the nuclear receptor REV-ERB” (Nature Communications, 2022)
